Laboratory results as given in paper PMC9715595, “Optimization of the precursor supply for an enhanced FK506 production in Streptomyces tsukubaensis” (Frontiers in Bioengineering and Biotechnology, 2022).

Columns and labels:
[1] = target: T1, PipAf (Pip; LCD from A. friuliensis) (Actinoplanes friuliensis, UniProt U5VYY1); assay: X-ray crystal structure ([…] Å); type: binding; settings: co-crystallised with 140 mM lysine and 1 mM NAD+; NADH bound; pH 8.5; active site
T1 construct: gene AFR_18570; full length, N-terminal His-tag (pET30 Ek/LIC), E. coli; monomer 339 residues, ~36 kDa, homodimer
T1 sequence (U5VYY1 1-339): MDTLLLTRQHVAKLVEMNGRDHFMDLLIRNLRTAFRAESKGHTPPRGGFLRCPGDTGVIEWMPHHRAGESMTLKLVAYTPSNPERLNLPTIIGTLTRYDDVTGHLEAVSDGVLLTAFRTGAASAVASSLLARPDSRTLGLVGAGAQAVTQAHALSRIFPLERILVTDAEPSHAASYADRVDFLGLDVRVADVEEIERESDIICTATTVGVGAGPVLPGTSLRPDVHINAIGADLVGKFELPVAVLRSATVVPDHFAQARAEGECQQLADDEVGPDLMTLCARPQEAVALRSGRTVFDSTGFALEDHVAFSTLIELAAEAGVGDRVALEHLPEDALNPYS

[2] = target: lysine cyclodeaminase PipAf from Actinoplanes friuliensis (Actinoplanes friuliensis); assay: SEC; gel filtration on Superdex 200, 150 mM NaCl, 25 mM HEPES pH 7.4; main peak corresponds to a dimer
[3] = target: T1, PipAf (Pip; LCD from A. friuliensis); assay: X-ray crystal structure ([…] Å); type: binding; settings: crystallised with 1 mM NAD+; cofactor modelled as NADH; one NADH per monomer

NCCCC[C@H](N)C(=O)O [lysine]
X-ray crystal structure (1.4 Å) [1]: Lysine binds in the active site running parallel to the nicotinamide ring

lysine cyclodeaminase PipAf from Actinoplanes friuliensis (enzyme)
stoichiometry N [2]: 2

NC(=O)C1=CN([C@@H]2O[C@H](COP(=O)(O)OP(=O)(O)OC[C@H]3O[C@@H](n4cnc5c(N)ncnc54)[C@H](O)[C@@H]3O)[C@@H](O)[C@H]2O)C=CC1 [NADH]
X-ray crystal structure (1.3 Å) [3]: One molecule NADH binds per monomer via a canonical Rossman fold
